Structures can show the parent of a compound that is named as a salt. Where two headings read alike, the source gives them in different places. Each block holds one molecule with its values, some of them ahead of it.
Target: T1, His6-AspH315–758 (human aspartate/asparagine-β-hydroxylase, AspH) (Homo sapiens, UniProt Q12797)
T1 construct: N-Terminally His6-tagged human AspH315–758 (His6-AspH315–758) was produced in E. coli BL21 (DE3) cells; made in house; host or cells: E. coli BL21 (DE3), pET-28a(+) vector
T1 sequence (Q12797 315-758): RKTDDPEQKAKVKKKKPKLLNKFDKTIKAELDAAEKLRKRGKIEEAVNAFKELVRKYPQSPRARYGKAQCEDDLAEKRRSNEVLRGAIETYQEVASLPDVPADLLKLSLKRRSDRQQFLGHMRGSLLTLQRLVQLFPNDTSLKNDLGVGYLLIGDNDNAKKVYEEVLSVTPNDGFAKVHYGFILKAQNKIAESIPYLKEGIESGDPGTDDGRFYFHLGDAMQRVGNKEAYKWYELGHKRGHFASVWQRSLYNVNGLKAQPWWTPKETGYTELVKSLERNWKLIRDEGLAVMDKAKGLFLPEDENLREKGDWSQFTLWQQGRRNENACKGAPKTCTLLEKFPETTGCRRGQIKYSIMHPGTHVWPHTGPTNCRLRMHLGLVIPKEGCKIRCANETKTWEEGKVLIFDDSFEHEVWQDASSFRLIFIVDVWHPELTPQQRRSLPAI
Test: SPE-MS AspH inhibition assay (LOPAC screen at fixed 20 μM and IC50 dose-response), hydroxylation of cyclic peptide hFX-CP101–119
Format: biochemical
Settings: for Plate 5 (% inhibition) / Plate 5 (% conversion): plate 5 (Pfitzer), test compounds at fixed 20 μM; for Plate 5 (% conversion): mean conversion DMSO 32.88

[1] = LOPAC compound at 20uM, plate 2, conversion of substrate peptide
[2] = LOPAC compound at 20uM, plate 2, normalised to DMSO and 2,4-PDCA controls
[3] = LOPAC Plate 4, compound at 20 uM, substrate conversion
[4] = LOPAC compound at fixed 20 uM, plate 1, normalised to DMSO and 2,4-PDCA controls
[5] = LOPAC compound at fixed 20 uM, substrate conversion, plate 1
[6] = LOPAC compound at 20uM, plate 3, conversion of substrate peptide

SMILES: CNC(=O)c1cc2c(cn1)[nH]c1ccccc12 [N-Methyl-beta-carboline-3-carboxamide]
Plate 2 (% conversion) [1]: 36.80%
Plate 2 (% inhibition) [2]: -2.54%

SMILES: CNCCc1ccc(O)c(O)c1.Cl [N-Methyldopamine hydrochloride]
Plate 2 (% conversion): 9.52%
Plate 2 (% inhibition) [2]: 78.96%

SMILES: CNCCc1cnc(CCC(c2ccccc2)c2ccccc2)[nH]1.O=C(O)C(=O)O.O=C(O)C(=O)O [N-Methylhistaprodifen dioxalate salt]
Plate 2 (% conversion) [1]: 8.76%
Plate 2 (% inhibition) [2]: 81.23%

SMILES: CCCCCCCC/C=C\CCCCCCCC(=O)NCCc1ccc(O)c(O)c1 [N-Oleoyldopamine]
% inhibition (LOPAC Plate 4, compound at 20 uM): 94.15%
% conversion [3]: 4.34%

SMILES: O=C(O)c1ccccc1Nc1ccccc1 [N-Phenylanthranilic acid]
Plate 1 (% inhibition) [4]: 20.57%
Plate 1 (% conversion) [5]: 28.96%

SMILES: NS(=O)(=O)c1cccc2c1c([N+](=O)[O-])cc1nc([O-])c([O-])nc12.[Na+].[Na+] [NBQX disodium]
Plate 3 (% conversion) [6]: 7.99%

SMILES: O=C(O)/C=C1\CCCc2ccccc2C1O (stereo not shown) [NCS-382]
Plate 3 (% conversion) [6]: 38.57%

SMILES: O=C(Nc1cccc(C(=O)Nc2ccc(S(=O)(=O)O)c3cc(S(=O)(=O)O)cc(S(=O)(=O)O)c23)c1)Nc1cccc(C(=O)Nc2ccc(S(=O)(=O)O)c3cc(S(=O)(=O)O)cc(S(=O)(=O)O)c23)c1 [NF 023, reference compound]
Plate 3 (% conversion) [6]: 4.28%

SMILES: [H]/N=C(/NC)NCCC[C@H](N)C(=O)O [NG-Monomethyl-L-arginine acetate]
Plate 3 (% conversion) [6]: 38.37%

SMILES: N=C(NCCC[C@H](N)C(=O)O)N[N+](=O)[O-] [NG-Nitro-L-arginine]
Plate 3 (% conversion) [6]: 40.79%

SMILES: CC(C)[C@H]1c2ccc(F)cc2CC[C@@]1(CCN(C)CCCc1nc2ccccc2[nH]1)OC(=O)C1CC1 [NNC 55-0396]
Plate 3 (% conversion) [6]: 58.37%

SMILES: O=C(O)C(=O)N[C@H](Cc1ccccc1)C(=O)O [NOFD, N-oxalyl-D-phenylalanine, reference compound]
IC50 [μM] (50 nM His6-AspH315–758, 1.0 μM hFX-CP101–119, 3 μM 2OG, 2 μM Fe(II), 50 mM HEPES pH 7.5, 20 °C, mean ± SD, n = 2 (2,4-PDCA n = 10)): weak
IC50 (50 nM His6-AspH315–758, 1.0 μM hFX-CP101–119, 3 μM 2OG, 2 μM Fe(II), 50 mM HEPES pH 7.5, 20 °C, mean ± SD, n = 2 (2,4-PDCA n = 10), read-out: IC50): 15.5 ± 3.13 µM

SMILES: O=C(Nc1cc(C(F)(F)F)cc(C(F)(F)F)c1)Nc1c(Br)cc(Br)cc1-c1nn[nH]n1 [NS5806]
Plate 2 (% conversion) [1]: 28.28%
Plate 2 (% inhibition) [2]: 22.93%

SMILES: Cl.c1ccc2c(c1)CCC[C@H]2Nc1nc2ccccc2[nH]1 [NS8593 hydrochloride]
Plate 2 (% conversion) [1]: 39.37%
Plate 2 (% inhibition) [2]: -10.19%

SMILES: O=c1onc2n1-c1cc(Br)ccc1OC2 [NS 2028]
Plate 3 (% conversion) [6]: 35.06%

SMILES: O=C1C(SCCO)=C(SCCO)C(=O)c2ccccc21 [NSC 95397]
Plate 2 (% conversion): 23.59%
Plate 2 (% inhibition) (20 µM): 36.92%

SMILES: CCn1cc(C(=O)[O-])c(=O)c2ccc(C)nc21.[Na+] [Nalidixic acid sodium]
Plate 3 (% conversion) [6]: 26.41%

SMILES: C=CCN1CC[C@]23c4c5ccc(O)c4O[C@H]2C(=O)CC[C@@]3(O)[C@H]1C5 [Naloxone hydrochloride]
Plate 3 (% conversion): 40.30%

SMILES: O=C1CC[C@@]2(O)[C@H]3Cc4ccc(O)c5c4[C@@]2(CCN3CC2CC2)[C@H]1O5 [Naltrexone hydrochloride]
Plate 3 (% conversion): 34.83%

SMILES: Cc1cccc(C)c1NC(=O)CN1CCCC1=O [Nefiracetam]
Plate 2 (% conversion): 34.89%
inhibition at 20 µM (read-out: Plate 2 (% inhibition)): 3.19%

SMILES: CS(=O)(=O)O.Cc1c(O)cccc1C(=O)N[C@@H](CSc1ccccc1)[C@H](O)CN1C[C@H]2CCCC[C@H]2C[C@H]1C(=O)NC(C)(C)C.O [Nelfinavir mesylate hydrate]
Plate 2 (% conversion) [1]: 32.94%
Plate 2 (% inhibition) [2]: 9.02%

SMILES: CN(C)C(=O)Oc1cccc([N+](C)(C)C)c1 [Neostigmine bromide]
Plate 3 (% conversion): 40.63%

SMILES: COC(=O)C1=C(C)NC(C)=C(C(=O)OC)C1c1ccccc1[N+](=O)[O-] [Nifedipine]
Plate 3 (% conversion): 39.50%

SMILES: Cc1ncc(CNC(=O)N(CCCl)N=O)c(N)n1 [Nimustine hydrochloride]
Plate 3 (% conversion): 38.40%

SMILES: CNCCC(Oc1ccccc1OC)c1ccccc1 (stereo not shown) [Nisoxetine hydrochloride]
Plate 3 (% conversion): 39.53%

SMILES: COC(=O)Nc1nc2ccc(C(=O)c3cccs3)cc2[nH]1 [Nocodazole]
Plate 3 (% conversion): 40.67%

SMILES: O=C1OC(=O)[C@H]2[C@@H]1[C@@H]1CC[C@H]2O1 [Norcantharidin]
Plate 3 (% conversion): 35.60%

SMILES: Nc1nc(OCc2ccccc2)c2nc[nH]c2n1 [O6-benzylguanine]
Plate 1 (% inhibition) [4]: -1.55%
Plate 1 (% conversion) [5]: 36.39%

SMILES: Cc1cc2c(s1)Nc1ccccc1N=C2N1CCN(C)CC1 [Olanzapine]
% conversion: 42.51%
inhibition at 20 µM: -17.7%

SMILES: CCCCCCCC/C=C\CCCCCCCC(=O)O [Oleic Acid]
Plate 3 (% conversion): 10.92%

SMILES: CCCCCCCC/C=C\CCCCCCCC(=O)NCc1ccc(O)c(OC)c1 [Olvanil]
Plate 3 (% conversion): 40.29%

SMILES: CN(CC[C@@H](Oc1ccc(C(F)(F)F)cc1)c1ccccc1)CC(=O)[O-].[Li+] [Org 24598 lithium salt]
Plate 1 (% conversion): 40.79%
Plate 1 (% inhibition): -14.64%

SMILES: O=C(O)/C=C/C(=O)O.O=C(O)/C=C/C(=O)O.O=C(O)/C=C/C(=O)O.O=C1CCCN1CC#CCN1CCCC1.O=C1CCCN1CC#CCN1CCCC1 [Oxotremorine sesquifumarate salt]
Plate 3 (% conversion): 14.90%

The next lines start with the values.

Plate 3 (% conversion) [6]: 36.56%
SMILES: O=c1[nH]c2cc(C(F)(F)F)ccc2n1-c1cc(C(F)(F)F)ccc1O [NS-1619]

Plate 2 (% conversion) [1]: 37.98%
Plate 2 (% inhibition) [2]: -6.05%
SMILES: CN(C)C(N)=NCCC[C@H](N)C(=O)O.Cl [N^G,N^G-Dimethylarginine hydrochloride]

Plate 5 (% inhibition): -70.28%
Plate 5 (% conversion): 60.23%
SMILES: COc1ccc2c(c1)CCC(c1ccccc1)=C2c1ccc(OCCN2CCCC2)cc1 [Nafoxidine]

Plate 3 (% conversion) [6]: 38.59%
SMILES: c1ccc2c(CC3=NCCN3)cccc2c1 [Naphazoline hydrochloride]

Plate 2 (% conversion) [1]: 39.49%
inhibition at 20 µM (LOPAC compound at 20uM, plate 2, normalised to DMSO and 2,4-PDCA controls, read-out: Plate 2 (% inhibition)): -10.6%
SMILES: CNS(=O)(=O)CCc1ccc2[nH]cc(C3CCN(C)CC3)c2c1 [Naratriptan hydrochloride]

Plate 5 (% inhibition): 38.58%
Plate 5 (% conversion): 23.19%
SMILES: Cc1c(O)cccc1C(=O)N[C@@H](CSc1ccccc1)[C@H](O)CN1C[C@H]2CCCC[C@H]2C[C@H]1C(=O)NC(C)(C)C [Nelfinavir]

Plate 3 (% conversion) [6]: 41.91%
SMILES: CCOC(=O)C1=C(C)NC(C)=C(C(=O)OCC)C1c1c(F)c(F)c(F)c(F)c1F [Nemadipine-A]

Plate 3 (% conversion) [6]: 44.76%
SMILES: COC(=O)C1=C(C)NC(C)=C(C(=O)OCCN(C)Cc2ccccc2)C1c1cccc([N+](=O)[O-])c1 (stereo not shown) [Nicardipine hydrochloride]

Plate 3 (% conversion) [6]: 32.98%
SMILES: O=C(O)c1cccnc1Nc1cccc(C(F)(F)F)c1 [Niflumic acid]

Plate 3 (% conversion) [6]: 43.84%
SMILES: COCCOC(=O)C1=C(C)NC(C)=C(C(=O)OC(C)C)C1c1cccc([N+](=O)[O-])c1 (stereo not shown) [Nimodipine]

Plate 3 (% conversion) [6]: 38.78%
SMILES: CCOC(=O)C1=C(C)NC(C)=C(C(=O)OC)C1c1cccc([N+](=O)[O-])c1 (stereo not shown) [Nitrendipine]

Inhibition at 20 µM [%] (AspH activity, fixed compound concentration 20 μM, initial LOPAC screen, 0.5%v/v DMSO): 98.9%
SMILES: CC(Cc1ccc(O)c(O)c1)C(C)Cc1ccc(O)c(O)c1 (stereo not shown) [Nordihydroguaiaretic acid, reference compound]

Plate 3 (% conversion) [6]: 38.14%
SMILES: COc1ccc2c(c1OC)C(=O)O[C@@H]2[C@H]1c2c(cc3c(c2OC)OCO3)CCN1C.Cl [Noscapine hydrchloride]

Plate 3 (% conversion) [6]: 36.07%
SMILES: CC(CCc1ccccc1)NC(C)C(O)c1ccc(O)cc1 (stereo not shown) [Nylidrin hydrochloride]

Plate 3 (% conversion) [6]: 35.30%
SMILES: N[C@@H](COP(=O)(O)O)C(=O)O [O-Phospho-L-serine]

Plate 1 (% inhibition) [4]: -7.39%
Plate 1 (% conversion) [5]: 38.35%
SMILES: CCCCCCCCCCCCCCCCCCc1ccc(C(=O)/C=C/C(=O)O)cc1 [OBAA]

Plate 3 (% conversion) [6]: 29.75%
SMILES: CCCCCc1ccc(/C=C/C(=O)Nc2cc(Cl)ccc2C(=O)O)cc1 [ONO-RS-082]

Plate 5 (% inhibition): 28.06%
Plate 5 (% conversion): 26.77%
SMILES: CCCN1CCC[C@@H](c2cccc(S(C)(=O)=O)c2)C1 [OSU6162]

Plate 3 (% conversion) [6]: 41.94%
SMILES: CC1COc2c(N3CCN(C)CC3)c(F)cc3c(=O)c(C(=O)O)cn1c23 (stereo not shown) [Ofloxacin]

Plate 3 (% conversion) [6]: 37.63%
SMILES: Cn1cnc2c(NCc3ccccc3)nc(NCCO)nc21 [Olomoucine]

% conversion [3]: 31.06%
SMILES: Cc1[nH]c(=O)c(C#N)cc1-c1ccc2nccn2c1.Cl [Olprinone hydrochloride]

Plate 1 (% inhibition) [4]: -12.26%
Plate 1 (% conversion) [5]: 39.99%
SMILES: OCCN1CCN(CCCN2c3ccccc3C=Cc3ccccc32)CC1 [Opipramol dihydrochloride]

Reference: PMC7251097, “Aspartate/asparagine-β-hydroxylase: a high-throughput mass spectrometric assay for discovery of small molecule inhibitors” (Scientific Reports, 2020)
